Measurements as given in patent US4613598A, “Piperazine derivatives and their acid addition salts” (Mitsubishi Chemical Industries Limited, priority 1984, dated 1986).
Where a name gives a salt, the structure may show the parent alone.

Tests used:
[1] = test system: spontaneous hypertensive rats; test: Hypotensive activity in non-narcotized, heart-catheterized spontaneous hypertensive rats; format: in vivo; conditions: Rattus norvegicus, oral, lowest blood pressure during 6 hours after administration, read-out: Hypotensive ratio
Method: Hypotensive activity As the experimental animal, spontaneous hypertensive rats 5 to 7 months after birth with a body weight of 300 to 370 g were used. The blood pressure and the heart beat of the non-narcotized, heart-catheterized rats were operatively determined to calculate the averages in blood pressure and heart beat prior to the administration of the present compound. Successively during 6 hours after orally administering the present compound, the blood pressure and the heart beat were determined to calculate the hypotensive ratio by the following formula: [formula] wherein X is the average in blood pressure before administration; and Y is the value of the lowest blood pressure after the administration.

[2] = Acute toxicity (LD50, Litchfield-Wilcoxon method), oral administration to mouse; conditions: in vivo
Method: The present compound was orally administered to mouse and the acute toxicity value (LD50) was calculated according to Litchfield-Wilcoxonmethod.

Row | Structure (SMILES) | inhibition in vivo at 0.3 mg/kg [1] | inhibition in vivo at 1 mg/kg [1] | inhibition in vivo at 3 mg/kg [1] | LD50 [2] | inhibition in vivo at 10 mg/kg [1]
1 | COc1ccccc1N1CCN(CCCCC(=O)c2ccc(OC)c(S(N)(=O)=O)c2)CC1 [Compound No. 2, 5-[5-[4-(2-methoxyphenyl)-1-piperazinyl]valeryl]-2-methoxy-benzenesulfonamide dihydrochloride] | 10.5% | 34.6% | 19.7% |  | 
2 | COc1ccccc1N1CCN(CCCCC(=O)c2ccc(SC)c(S(N)(=O)=O)c2)CC1 [Compound No. 6, 5-[5-[4-(2-methoxyphenyl)-1-piperazinyl]valeryl]-2-methylthio-benzenesulfonamide] |  | 16.1% | 24.3% | > 3000 mg/kg | 23%
3 | COc1ccccc1N1CCN(CCCCC(=O)c2ccc([S+](C)[O-])c(S(N)(=O)=O)c2)CC1 (centres unmarked) [Compound No. 7, 5-[5-[4-(2-methoxyphenyl)-1-piperazinyl]valeryl]-2-methylsulfinyl-benzenesulfonamide] |  | 8.9% | 17.5% |  | 31.3%
4 | COc1ccccc1N1CCN(CCCCC(=O)c2ccc(O)c(C(N)=O)c2)CC1 [Compound No. 12, 5-[5-[4-(2-methoxyphenyl)-1-piperazinyl]valeryl]-salicylamide] |  |  | 35.2% | > 3000 mg/kg | 
5 | NC(=O)c1cc(C(=O)CCCCN2CCN(c3ccccc3Cl)CC2)ccc1O [Compound No. 13, 5-[5-[4-(2-chlorophenyl)-1-piperazinyl]valeryl]salicylamide] |  |  | 19.7% |  | 16.5%
6 | O=C(O)c1cc(C(O)CCCCN2CCN(c3ccccn3)CC2)ccc1O (centres unmarked) [Compound No. 17, 5-[5-[4-(2-pyridyl)-1-piperazinyl]-1-hydroxypentyl]salicylic acid] |  |  | 21.1% |  | 15.7%
7 | COc1ccccc1N1CCN(CCCCC(=O)c2ccc(O)c(NC(C)=O)c2)CC1 [Compound No. 23, 5-[5-[4-(2-methoxyphenyl)-1-piperazinyl]valeryl]-2-hydroxyacetanilide] |  |  | 36.5% |  | 
8 | COc1ccc(C(=O)CCCCN2CCN(c3ccccc3OC)CC2)cc1NC(N)=O [Compound No. 26, 5-[5-[4-(2-methoxyphenyl)-1-piperazinyl]valeryl]-2-methoxy-N-carbamoylaniline] |  |  | 31.8% | 2700 mg/kg | 
9 | COc1ccc(C(=O)CCCCN2CCN(c3ccccc3OC)CC2)cc1NS(C)(=O)=O [Compound No. 29, 5-[5-[4-(2-methoxyphenyl)-1-piperazinyl]valeryl]-2-methoxy-N-methanesulfonylaniline dihydrochloride] |  | 22.8% | 37.3% |  | 
10 | COc1ccccc1N1CCN(CCCCC(=O)c2ccc(SC)c(NC(N)=O)c2)CC1 [Compound No. 34, 5-[5-[4-(2-methoxyphenyl)-1-piperazinyl]valeryl]-2-methylthio-N-carbamoylaniline] |  | 17.6% | 28.9% |  | 39.9%
11 | COc1ccccc1N1CCN(CCCCC(=O)c2ccc([S+](C)[O-])c(NC(N)=O)c2)CC1 (centres unmarked) [Compound No. 35, 5-[5-[4-(2-methoxyphenyl)-1-piperazinyl]valeryl]-2-methylsulfinyl-N-carbamoylaniline] | 16.5% | 16.1% | 25.6% | > 3000 mg/kg | 47.9%
12 | COc1ccccc1N1CCN(CCCCC(=O)c2ccc3c(c2)NC(=O)CCO3)CC1 [Compound No. 41, 7-[5-[4-(2-methoxyphenyl)-1-piperazinyl]valeryl]-2,3,4,5-tetrahydro-1,5-benzoxazepine-4-one] | 25.9% | 33% | 35.6% |  | 
13 | O=C1CSc2ccc(C(=O)CCCN3CCN(c4ccccn4)CC3)cc2N1 [Compound No. 49] |  | 10.9% | 45.7% |  | 
14 | COc1ccc(C(O)CN2CCN(c3ccccc3)CC2)cc1S(N)(=O)=O (centres unmarked) [Control 1, reference compound] |  | 10.5% |  |  | 2.5%
15 | NC(=O)c1cc(C(=O)CN2CCN(c3ccccc3)CC2)ccc1O [Control 2, 5[2(4-phenyl-1-piperazinyl)acetyl]salicylamide, reference compound] |  | 9.9% | 13.7% |  | 6.6%
16 | COc1ccc(C(O)CN2CCN(c3ccccc3)CC2)cc1NC(N)=O (centres unmarked) [Control 3, reference compound] |  |  | 5.6% |  | 9.4%
